Laboratory results as given in patent publication US20260159486A1, “BENZO[H]QUINAZOLINE-4-AMINE DERIVATIVES FOR THE TREATMENT OF CANCER” (Redona Therapeutics, Inc., priority 2021, published 2026).

How the values were obtained:
CAL-51 cells = experiment: CAL-51 proliferation assay; type: cell-based; conditions: Homo sapiens, CAL-51, 72 h, YO-PRO-1 Iodide readout
Procedure, shortened: (§1)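 Cells seeded at 750 per well, treated next day for 72 h at 37 °C with 0.5% final DMSO. Cell number read by YO-PRO-1 fluorescence after lysis, normalized to DMSO (100%) and time-zero cells (0%). GI50 from 4-parameter logistic fit, maximum constrained to 100%.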

MDA-MB-231 cells = experiment: MDA-MB-231 proliferation assay; type: cell-based; conditions: Homo sapiens, MDA-MB-231, 72 h, YO-PRO-1 Iodide readout
Procedure, shortened: as §1

recombinant human CLK3 = biological target: T1, recombinant human CLK3 (Homo sapiens, UniProt P49761); experiment: CLK3 kinase assay (LANCE Ultra); type: biochemical; conditions: CLK3 0.5 nM, ATP 300 μM, 3 hours at 30° C.
T1 construct: purchased Thermo Fisher Scientific PV3826
Procedure, shortened: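 Recombinant human CLK3 (0.5 nM) with ULight-CREBtide (50 nM) and 300 μM ATP, 3 h at 30 °C in kinase buffer; EDTA stop, then Eu-anti-phospho-CREB antibody (2 nM, 1 h RT), TR-FRET read at 665/620 nm. Inhibition normalized to DMSO and no-ATP wells; IC50 from 4-parameter fit, ten 1:3 concentrations in duplicate.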

T1 sequence (P49761 whole entry): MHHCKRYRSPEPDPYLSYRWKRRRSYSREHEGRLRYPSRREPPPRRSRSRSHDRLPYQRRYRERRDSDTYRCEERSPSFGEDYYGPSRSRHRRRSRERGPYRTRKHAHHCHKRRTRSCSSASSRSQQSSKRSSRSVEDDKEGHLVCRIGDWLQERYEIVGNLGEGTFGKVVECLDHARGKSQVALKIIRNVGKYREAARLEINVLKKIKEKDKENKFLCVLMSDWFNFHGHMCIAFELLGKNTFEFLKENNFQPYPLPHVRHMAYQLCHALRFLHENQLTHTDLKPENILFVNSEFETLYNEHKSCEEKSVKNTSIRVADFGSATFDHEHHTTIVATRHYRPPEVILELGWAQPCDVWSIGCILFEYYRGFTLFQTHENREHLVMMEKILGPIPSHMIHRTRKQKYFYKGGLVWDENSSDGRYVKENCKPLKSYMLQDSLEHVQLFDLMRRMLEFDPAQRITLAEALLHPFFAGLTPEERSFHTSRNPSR

SMILES	GI50 (MDA-MB-231 cells)	IC50 (recombinant human CLK3)	GI50 (CAL-51 cells)
CC1(C)Cc2c(ccc(O[C@H]3CC[C@H](N)CC3)c2NCC#N)-c2ncnc(N)c21 [Example 35, 2-[[4-amino-8-(trans-4-aminocyclohexoxy)-5,5-dimethyl-6H-benzo[h]quinazolin-7-yl]amino]acetonitrile]	0.1 to 2 µM	0.03 to 0.1 µM	0.1 to 2 µM
CN(Cc1c[nH]cn1)c1c(O[C@H]2CC[C@H](N)CC2)ccc2c1CC(C)(C)c1c(N)ncnc1-2 [Example 103, 8-(trans-4-aminocyclohexoxy)-N7-(1H-imidazol-4-ylmethyl)-N7,5,5-trimethyl-6H-benzo[h]quinazoline-4,7-diamine]	0.1 to 2 µM	0.03 to 0.1 µM	0.1 to 2 µM
CC1(C)Cc2c(ccc(O[C@H]3CC[C@@H](N)CC3)c2NC[C@@H]2CNC(=O)O2)-c2ncnc(N)c21 [Example 128, (5R)-5-[[[4-amino-8-(cis-4-aminocyclohexoxy)-5,5-dimethyl-6H-benzo[h]quinazolin-7-yl]amino]methyl]oxazolidin-2-one]	> 2 µM	< 0.03 µM	> 2 µM
CC1(C)Cc2c(ccc(O[C@H]3CC[C@H](N)CC3)c2S(=O)(=O)CCC#N)-c2ncnc(N)c21 [Example 112, 3-[[4-amino-8-(trans-4-aminocyclohexoxy)-5,5-dimethyl-6H-benzo[h]quinazolin-7-yl]sulfonyl]propanenitrile]	> 2 µM	0.03 to 0.1 µM	0.1 to 2 µM
CC1(C)Cc2c(ccc(O[C@H]3CC[C@H](N)CC3)c2C(=O)NCC#N)-c2ncnc(N)c21 [Example 90, 4-amino-8-(trans-4-aminocyclohexoxy)-N-(cyanomethyl)-5,5-dimethyl-6H-benzo[h]quinazoline-7-carboxamide]	0.1 to 2 µM	< 0.03 µM	0.1 to 2 µM
CC1(C)Cc2c(ccc(O[C@H]3CC[C@H](N)CC3)c2N(CCC#N)C2CC2)-c2ncnc(N)c21 [Example 51, 3-[[4-amino-8-(trans-4-aminocyclohexoxy)-5,5-dimethyl-6H-benzo[h]quinazolin-7-yl]-cyclopropyl-amino]propanenitrile]	< 0.1 µM	< 0.03 µM	< 0.1 µM

Continued, in another order:

GI50 (MDA-MB-231 cells)	IC50 (recombinant human CLK3)	SMILES	GI50 (CAL-51 cells)
< 0.1 µM	< 0.03 µM	CN1CCN(c2ccc3c(c2N(C)CCC#N)CC(C)(C)c2c(N)ncnc2-3)CC1 [Example 118, 3-[[4-amino-5,5-dimethyl-8-(4-methylpiperazin-1-yl)-6H-benzo[h]quinazolin-7-yl]-methyl-amino]propanenitrile]	< 0.1 µM
< 0.1 µM	< 0.03 µM	COCCS(=O)(=O)N(C)c1c(O[C@H]2CC[C@H](N)CC2)ccc2c1CC(C)(C)c1c(N)ncnc1-2 [Example 64, N-[4-amino-8-(trans-4-aminocyclohexoxy)-5,5-dimethyl-6H-benzo[h]quinazolin-7-yl]-2-methoxy-N-methyl-ethanesulfonamide]	< 0.1 µM
< 0.1 µM	< 0.03 µM	CN(CCC#N)c1c(N2CCNCC2)ccc2c1CC(C)(C)c1c(N)ncnc1-2 [Example 125, 3-[(4-amino-5,5-dimethyl-8-piperazin-1-yl-6H-benzo[h]quinazolin-7-yl)-methyl-amino]propanenitrile]	< 0.1 µM
